Data published in PubChem BioAssay (NCI).
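Dose response: 5 concentrations. Exposure: 48 h. Format: 96-well plates. Endpoint: linear interpolation; highest concentration if not reached. GI50 = concentration required for 50% inhibition of growth. Definition used: TGI = concentration required for complete inhibition of growth.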

Tests used:
Assay in all cases: NCI anticancer screen, dose series, 48 h
M14 melanoma = system: M14 melanoma
SR leukemia = system: SR leukemia
U251 CNS = system: U251 CNS
HL-60(TB) leukemia = system: HL-60(TB) leukemia
NCI-H460 lung = system: NCI-H460 lung
SK-OV-3 ovarian = system: SK-OV-3 ovarian
KM12 colon = system: KM12 colon
TK-10 renal = system: TK-10 renal
EKVX NSCLC = system: EKVX NSCLC
LOX IMVI melanoma = system: LOX IMVI melanoma

Q: With `COc1cnc2c(c1)C(=O)c1c-2n(CCCN2CCN(C)CC2)c(=O)c2cc([N+](=O)[O-])ccc12` as the molecule, how does the GI50 (M14 melanoma) read?
A: The GI50 was 131 nM.

Q: What about the TGI (M14 melanoma) of the same molecule?
A: Its TGI is 0.37 µM.

Q: What about the GI50 (SR leukemia) of the same molecule?
A: The GI50 was 24.9 nM.

Q: What about the TGI (SR leukemia) of the same molecule?
A: The TGI was 0.365 µM.

Q: And the GI50 (U251 CNS)?
A: The GI50 was 165 nM.

Q: What about the TGI (U251 CNS) of the same molecule?
A: The TGI was 0.386 µM.

Q: And the GI50 (HL-60(TB) leukemia)?
A: The GI50 was 168 nM.

Q: And the TGI (HL-60(TB) leukemia)?
A: Its TGI is 0.372 µM.

Q: And the GI50 (NCI-H460 lung)?
A: Its GI50 is 135 nM.

Q: What about the TGI (NCI-H460 lung) of the same molecule?
A: Its TGI is 0.365 µM.

Q: What about the GI50 (SK-OV-3 ovarian) of the same molecule?
A: The GI50 was 1800 nM.

Q: What about the TGI (SK-OV-3 ovarian) of the same molecule?
A: Its TGI is 3.59 µM.

Q: What about the GI50 (KM12 colon) of the same molecule?
A: Its GI50 is 2110 nM.

Q: What about the TGI (KM12 colon) of the same molecule?
A: The TGI was 7.8 µM.

Q: What about the GI50 (TK-10 renal) of the same molecule?
A: Its GI50 is 237 nM.

Q: And the TGI (TK-10 renal)?
A: Its TGI is 0.715 µM.

Q: What about the GI50 (EKVX NSCLC) of the same molecule?
A: The GI50 was 514 nM.

Q: And the TGI (EKVX NSCLC)?
A: Its TGI is 2.05 µM.

Q: And the GI50 (LOX IMVI melanoma)?
A: The GI50 was 180 nM.

Q: What about the TGI (LOX IMVI melanoma) of the same molecule?
A: Its TGI is 0.396 µM.

Q: How did the GI50 (M14 melanoma) turn out when `O=C(Nc1ccc(Cl)c(Cl)c1)NS(=O)(=O)c1cnccc1Oc1ccc(F)cc1` was run?
A: Its GI50 is 5240 nM.

Q: What about the TGI (M14 melanoma) of the same molecule?
A: Its TGI is greater than 100 µM.

Q: What about the GI50 (SR leukemia) of the same molecule?
A: The GI50 was 2550 nM.

Q: And the TGI (SR leukemia)?
A: Its TGI is 10.2 µM.

Q: And the GI50 (U251 CNS)?
A: The GI50 was 3420 nM.

Q: And the TGI (U251 CNS)?
A: Its TGI is 37.2 µM.

Q: What about the GI50 (HL-60(TB) leukemia) of the same molecule?
A: The GI50 was 2120 nM.

Q: What about the TGI (HL-60(TB) leukemia) of the same molecule?
A: Its TGI is 7.19 µM.

Q: And the GI50 (NCI-H460 lung)?
A: Its GI50 is 3090 nM.

Q: What about the TGI (NCI-H460 lung) of the same molecule?
A: Its TGI is 20.1 µM.

Q: And the GI50 (SK-OV-3 ovarian)?
A: The GI50 was 3870 nM.

Q: What about the TGI (SK-OV-3 ovarian) of the same molecule?
A: The TGI was 18.2 µM.

Q: And the GI50 (KM12 colon)?
A: The GI50 was 3750 nM.

Q: What about the TGI (KM12 colon) of the same molecule?
A: The TGI was 16.7 µM.

Q: What about the GI50 (TK-10 renal) of the same molecule?
A: The GI50 was 3690 nM.

Q: And the TGI (TK-10 renal)?
A: The TGI was 21.6 µM.

Q: And the GI50 (EKVX NSCLC)?
A: Its GI50 is 2680 nM.

Q: And the TGI (EKVX NSCLC)?
A: Its TGI is 44.4 µM.

Q: What about the GI50 (LOX IMVI melanoma) of the same molecule?
A: The GI50 was 3240 nM.

Q: What about the TGI (LOX IMVI melanoma) of the same molecule?
A: Its TGI is 53.1 µM.

Q: `COC(=O)C1(O)CC(=O)CCC1c1ccc(OC)cc1` (stereo not given) was tested. Which TGI (M14 melanoma) did it give?
A: Its TGI is greater than 100 µM.

Q: What about the TGI (SR leukemia) of the same molecule?
A: Its TGI is greater than 100 µM.

Q: What about the TGI (U251 CNS) of the same molecule?
A: The TGI was greater than 100 µM.

Q: What about the TGI (HL-60(TB) leukemia) of the same molecule?
A: The TGI was greater than 100 µM.

Q: What about the TGI (NCI-H460 lung) of the same molecule?
A: Its TGI is greater than 100 µM.

Q: And the TGI (SK-OV-3 ovarian)?
A: The TGI was greater than 100 µM.

Q: What about the TGI (KM12 colon) of the same molecule?
A: Its TGI is greater than 100 µM.

Q: What about the TGI (TK-10 renal) of the same molecule?
A: The TGI was greater than 100 µM.

Q: What about the TGI (EKVX NSCLC) of the same molecule?
A: Its TGI is greater than 100 µM.

Q: What about the TGI (LOX IMVI melanoma) of the same molecule?
A: Its TGI is greater than 100 µM.

Q: `Cc1ccccc1C(=O)N1CCN(C(=O)c2ccccc2C)CC1` was tested. Which TGI (M14 melanoma) did it give?
A: Its TGI is greater than 100 µM.

Q: And the TGI (SR leukemia)?
A: The TGI was greater than 100 µM.

Q: What about the TGI (U251 CNS) of the same molecule?
A: The TGI was greater than 100 µM.

Q: What about the TGI (HL-60(TB) leukemia) of the same molecule?
A: The TGI was greater than 100 µM.

Q: What about the TGI (NCI-H460 lung) of the same molecule?
A: The TGI was greater than 100 µM.

Q: And the TGI (SK-OV-3 ovarian)?
A: Its TGI is greater than 100 µM.

Q: What about the TGI (KM12 colon) of the same molecule?
A: Its TGI is greater than 100 µM.

Q: And the TGI (TK-10 renal)?
A: Its TGI is greater than 100 µM.

Q: What about the TGI (EKVX NSCLC) of the same molecule?
A: The TGI was greater than 100 µM.

Q: What about the TGI (LOX IMVI melanoma) of the same molecule?
A: The TGI was greater than 100 µM.

Q: Which GI50 (M14 melanoma) does the source give for `CN1/C(=C\C=C\C2=[N+](C)c3ccccc3C2(C)C)C(C)(C)c2ccccc21` here?
A: Its GI50 is 223 nM.

Q: What about the TGI (M14 melanoma) of the same molecule?
A: Its TGI is 1.31 µM.

Q: What about the GI50 (SR leukemia) of the same molecule?
A: Its GI50 is 194 nM.

Q: And the TGI (SR leukemia)?
A: The TGI was 4.44 µM.

Q: What about the GI50 (U251 CNS) of the same molecule?
A: Its GI50 is 36.9 nM.

Q: And the TGI (U251 CNS)?
A: The TGI was 5.21 µM.

Q: And the GI50 (HL-60(TB) leukemia)?
A: The GI50 was 27.1 nM.

Q: And the TGI (HL-60(TB) leukemia)?
A: The TGI was 0.217 µM.

Q: What about the GI50 (NCI-H460 lung) of the same molecule?
A: The GI50 was 54.1 nM.

Q: What about the TGI (NCI-H460 lung) of the same molecule?
A: Its TGI is 0.922 µM.

Q: And the GI50 (SK-OV-3 ovarian)?
A: Its GI50 is 152 nM.

Q: And the TGI (SK-OV-3 ovarian)?
A: The TGI was 0.638 µM.

Q: And the GI50 (KM12 colon)?
A: The GI50 was 36.3 nM.

Q: And the TGI (KM12 colon)?
A: The TGI was 0.932 µM.

Q: What about the GI50 (TK-10 renal) of the same molecule?
A: The GI50 was 560 nM.

Q: What about the TGI (TK-10 renal) of the same molecule?
A: Its TGI is 14.8 µM.

Q: And the GI50 (EKVX NSCLC)?
A: Its GI50 is 29.7 nM.

Q: And the TGI (EKVX NSCLC)?
A: Its TGI is 7.3 µM.

Q: And the GI50 (LOX IMVI melanoma)?
A: Its GI50 is 44.5 nM.

Q: What about the TGI (LOX IMVI melanoma) of the same molecule?
A: The TGI was 0.796 µM.

Q: Which results are given for `CCN(C(=O)/C=C/c1ccco1)c1ccccc1`?
A: TGI (M14 melanoma): > 100 µM; TGI (SR leukemia): > 100 µM; TGI (U251 CNS): > 100 µM; TGI (HL-60(TB) leukemia): > 100 µM; TGI (NCI-H460 lung): > 100 µM; TGI (SK-OV-3 ovarian): > 100 µM; TGI (KM12 colon): > 100 µM; TGI (TK-10 renal): > 100 µM; TGI (EKVX NSCLC): > 100 µM; TGI (LOX IMVI melanoma): > 100 µM

Q: Which results are given for `CSC(=NCCc1c[nH]c2ccccc12)NC#N`?
A: TGI (M14 melanoma): > 100 µM; TGI (SR leukemia): > 100 µM; TGI (U251 CNS): > 100 µM; TGI (HL-60(TB) leukemia): > 100 µM; TGI (NCI-H460 lung): > 100 µM; TGI (SK-OV-3 ovarian): > 100 µM; TGI (KM12 colon): > 100 µM; TGI (TK-10 renal): > 100 µM; TGI (EKVX NSCLC): > 100 µM; TGI (LOX IMVI melanoma): > 100 µM

Q: Which GI50 (M14 melanoma) does the source give for `Cc1cc(I)cc(CN(C)CCCN2CCCC2)c1O` here?
A: The GI50 was 16400 nM.

Q: And the TGI (M14 melanoma)?
A: The TGI was 33 µM.

Q: And the GI50 (SR leukemia)?
A: Its GI50 is 7520 nM.

Q: What about the TGI (SR leukemia) of the same molecule?
A: The TGI was 36.6 µM.

Q: And the GI50 (U251 CNS)?
A: Its GI50 is 19400 nM.

Q: And the TGI (U251 CNS)?
A: The TGI was 49.5 µM.

Q: And the GI50 (HL-60(TB) leukemia)?
A: The GI50 was 13400 nM.

Q: And the TGI (HL-60(TB) leukemia)?
A: The TGI was 31.3 µM.

Q: And the GI50 (NCI-H460 lung)?
A: Its GI50 is 16900 nM.

Q: What about the TGI (NCI-H460 lung) of the same molecule?
A: The TGI was 38.4 µM.

Q: What about the GI50 (SK-OV-3 ovarian) of the same molecule?
A: The GI50 was 20500 nM.

Q: What about the TGI (SK-OV-3 ovarian) of the same molecule?
A: The TGI was 61.2 µM.

Q: And the GI50 (KM12 colon)?
A: Its GI50 is 20300 nM.

Q: And the TGI (KM12 colon)?
A: The TGI was 46 µM.

Q: And the GI50 (TK-10 renal)?
A: Its GI50 is 17000 nM.

Q: What about the TGI (TK-10 renal) of the same molecule?
A: The TGI was 36 µM.

Q: What about the GI50 (EKVX NSCLC) of the same molecule?
A: Its GI50 is 38400 nM.

Q: What about the TGI (EKVX NSCLC) of the same molecule?
A: Its TGI is greater than 100 µM.

Q: What about the GI50 (LOX IMVI melanoma) of the same molecule?
A: The GI50 was 15000 nM.

Q: And the TGI (LOX IMVI melanoma)?
A: Its TGI is 30.6 µM.

Q: How did the TGI (M14 melanoma) turn out when `C/C(=N/NC(=O)C[N+](C)(C)C)C(CN(C)C)C(=O)Nc1ccccc1` (stereo not given) was run?
A: The TGI was greater than 100 µM.

Q: And the TGI (SR leukemia)?
A: The TGI was greater than 100 µM.

Q: And the TGI (U251 CNS)?
A: The TGI was greater than 100 µM.

Q: What about the TGI (HL-60(TB) leukemia) of the same molecule?
A: The TGI was greater than 100 µM.

Q: What about the TGI (NCI-H460 lung) of the same molecule?
A: The TGI was greater than 100 µM.

Q: What about the TGI (SK-OV-3 ovarian) of the same molecule?
A: Its TGI is greater than 100 µM.

Q: What about the TGI (KM12 colon) of the same molecule?
A: The TGI was greater than 100 µM.

Q: What about the TGI (TK-10 renal) of the same molecule?
A: The TGI was greater than 100 µM.

Q: What about the TGI (EKVX NSCLC) of the same molecule?
A: The TGI was greater than 100 µM.

Q: What about the TGI (LOX IMVI melanoma) of the same molecule?
A: The TGI was greater than 100 µM.
